Legend:
[1] = target: T1, BRI1 CD (MBP-BRI1) (Arabidopsis thaliana, UniProt O22476); assay: in vitro kinase assay with […]-γ-ATP, SDS-PAGE autoradiography; format: biochemical; conditions: 1 µM unlabelled ATP plus [32P]-γ-ATP; labelled compound; myelin basic protein; 10 mM MgCl2, 10 mM MnCl2, pH 7.5, 30 °C
T1 sequence (O22476 814-1196): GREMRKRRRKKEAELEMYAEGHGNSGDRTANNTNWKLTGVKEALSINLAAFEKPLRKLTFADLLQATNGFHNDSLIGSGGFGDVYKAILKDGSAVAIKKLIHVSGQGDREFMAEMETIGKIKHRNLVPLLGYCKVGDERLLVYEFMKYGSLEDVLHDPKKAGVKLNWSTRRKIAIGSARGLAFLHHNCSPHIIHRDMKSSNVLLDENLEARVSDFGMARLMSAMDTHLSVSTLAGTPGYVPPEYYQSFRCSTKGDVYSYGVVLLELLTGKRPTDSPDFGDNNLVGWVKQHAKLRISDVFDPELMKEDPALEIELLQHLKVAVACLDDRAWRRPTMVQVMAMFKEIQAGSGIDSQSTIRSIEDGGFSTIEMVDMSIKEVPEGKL

[2] = target: T2, EFR CD (MBP-EFR) (Arabidopsis thaliana, UniProt C0LGT6); assay: as above; format: biochemical; conditions: 1 µM unlabelled ATP plus [32P]-γ-ATP; labelled compound; myelin basic protein; 10 mM MgCl2, 10 mM MnCl2, pH 7.5, 30 °C
T2 sequence (C0LGT6 682-1031): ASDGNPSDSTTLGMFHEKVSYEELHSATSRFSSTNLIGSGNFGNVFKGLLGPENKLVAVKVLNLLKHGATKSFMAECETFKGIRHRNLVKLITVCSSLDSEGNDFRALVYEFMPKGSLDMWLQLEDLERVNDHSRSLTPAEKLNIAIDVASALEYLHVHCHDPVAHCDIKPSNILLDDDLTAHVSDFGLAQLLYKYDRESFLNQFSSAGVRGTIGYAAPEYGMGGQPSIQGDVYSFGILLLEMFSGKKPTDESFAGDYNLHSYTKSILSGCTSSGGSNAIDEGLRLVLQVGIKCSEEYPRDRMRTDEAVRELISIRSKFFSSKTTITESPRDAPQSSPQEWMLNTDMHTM

[3] = substrate: Nc1ncnc2c1ncn2[C@@H]1O[C@H](COP(=O)(O)OP(=O)(O)OP(=O)(O)O)[C@@H](O)[C@H]1O; assay: autophosphorylation over ATP range, PVDF blot autoradiography (PhosphorImager); format: biochemical, Arabidopsis thaliana

Molecule: Nc1ncnc2c1ncn2[C@@H]1O[C@H](COP(=O)(O)OP(=O)(O)OP(=O)(O)O)[C@@H](O)[C@H]1O [ATP]
- in vitro kinase assay with [32P]-γ-ATP, SDS-PAGE autoradiography [1]: BRI1 CD had a very strong auto- and trans-phosphorylation capacity
- in vitro kinase assay with [32P]-γ-ATP, SDS-PAGE autoradiography [2]: EFR CD possessed only minor auto-phosphorylation capacity

B1: BAK1 CD (GST-BAK1) (Arabidopsis thaliana) (protein)
chain: DHFFDVPAEEDPEVHLGQLKRFSLRELQVASDNFSNKNILGRGGFGKVYKGRLADGTLVAVKRLKEERTQGGELQFQTEVEMISMAVHRNLLRLRGFCMTPTERLLVYPYMANGSVASCLRERPESQPPLDWPKRQRIALGSARGLAYLHDHCDPKIIHRDVKAANILLDEEFEAVVGDFGLAKLMDYKDTHVTTAVRGTIGHIAPEYLSTGKSSEKTDVFGYGVMLLELITGQRAFDLARLANDDDVMLLDWVKGLLKEKKLEALVDVDLQGNYKDEEVEQLIQVALLCTQSSPMERPKMSEVVRMLEGDGLAERWEEWQKEEMFRQDFNYPTHHPAVSGWIIGDSTSQIENEYPSGPR
notes: cytoplasmic domain residues 256-615, N-terminal GST tag kept (pGEX-4T1), E. coli BL21, glutathione purified
- Km ([3]; autophosphorylation of GST-BAK1 CD): ∼7 µM

B2: BAK1 CD (GST-BAK1) (Arabidopsis thaliana; C408Y) (protein)
chain: DHFFDVPAEEDPEVHLGQLKRFSLRELQVASDNFSNKNILGRGGFGKVYKGRLADGTLVAVKRLKEERTQGGELQFQTEVEMISMAVHRNLLRLRGFCMTPTERLLVYPYMANGSVASCLRERPESQPPLDWPKRQRIALGSARGLAYLHDHYDPKIIHRDVKAANILLDEEFEAVVGDFGLAKLMDYKDTHVTTAVRGTIGHIAPEYLSTGKSSEKTDVFGYGVMLLELITGQRAFDLARLANDDDVMLLDWVKGLLKEKKLEALVDVDLQGNYKDEEVEQLIQVALLCTQSSPMERPKMSEVVRMLEGDGLAERWEEWQKEEMFRQDFNYPTHHPAVSGWIIGDSTSQIENEYPSGPR
notes: as for B1
- Km ([3]; autophosphorylation of GST-BAK1 CD (BAK1-5 protein)): ∼25 µM
